Here are results for 30 compounds from ChEMBL document CHEMBL1140338, “Range and sensitivity as descriptors of molecular property spaces in dynamic QSAR analyses” (J Med Chem, 2005).

Test [1] is described as follows: Binding affinity for alpha 1b adrenoceptor.
Test [2] can be described thus: Binding affinity for alpha 1a adrenoceptor.
Test [3] in a line: Binding affinity for alpha 1d adrenoceptor.

Molecules are shown by their SMILES.

Turning to `COc1c(C)c(C)c(O)c(C)c1CN(C)CCOc1cc(C)c(O)cc1C(C)C`, the pK was 8.92 in test [1], 9.4 in test [2] and 8.92 in test [3].

For the compound `COc1cc2nc(N3CCN(C(=O)C4COc5ccccc5O4)CC3)nc(N)c2cc1OC` (stereo unspecified), the pK is 9 in test [1] and 8.4 in test [3].

As to `CCC1=C(C(N)=O)[C@H](c2ccc([N+](=O)[O-])cc2)C(C(=O)NCCCN2CCC(c3ccccc3)(c3ccccc3)CC2)=C(COCCN)N1`, the pK turned out to be 6.49 in test [1], 9.19 in test [2] and 6.4 in test [3].

On to `COc1ccccc1N1CCN(CCCCN2C(=O)c3ccccc3C2=O)CC1`, for which the pK in test [1] amounted to 7.82; in test [2] it was 8.7; in test [3] it was 9.1.

With `COc1cccc(OC)c1OCCNCC1CSc2ccccc2O1` (stereo unspecified), the pK was 8.4 in test [1], 9.7 in test [2] and 9.4 in test [3].

For `COc1cccc2c1CC[C@H]1CN(CCn3c(=O)[nH]c4c(sc5cccnc54)c3=O)C[C@@H]21`, the pK in test [1] came to 8.16; in test [2] it was 9.66; in test [3] it was 9.01.

As for `Cc1ccc(N(CC2=NCCN2)c2cccc(O)c2)cc1`, the figures for the pK in test [1], in test [2] and in test [3] were 8.1, 8.8 and 8.1, respectively.

Turning to `CCCC(=O)N1CCCN(c2nc(N)c3cc(OC)c(OC)cc3n2)CC1`, the values for the pK in test [1], in test [2] and in test [3] were 9, 9.3 and 9, respectively.

With `COc1ccccc1N1CCN(CCN2C(=O)CC3(CCCC3)CC2=O)CC1`, the pK in test [1] stood at 6.2; in test [2] it was 6.6; in test [3], 8.2.

As for `C=Cc1sc2ccc(Cl)c3c2c1CN(C)CC3`, the pK in test [1] stood at 7.2; in test [2], 7.36; in test [3], 8.28.

Consider `COc1ccccc1N1CCN(CCCNc2c(C)c(=O)n(C)c(=O)n2C)CC1`, for which the pK in test [1] was 7.4; in test [2], 9.2; in test [3] it was 8.

In the case of `CC1=C(C(N)=O)[C@H](c2ccc([N+](=O)[O-])cc2)C(C(=O)NCCCCN2CCC(c3ccccc3)(c3ccccc3)CC2)=C(C)N1`, the results for the pK in test [1], in test [2] and in test [3] were 6.48, 8.72 and 6.4, respectively.

`COc1cc2nc(N(C)CCCNC(=O)C3CCCO3)nc(N)c2cc1OC` (stereo unspecified): the pK in test [1] came to 8; in test [2], 8; in test [3], 8.5.

For the compound `COC(=O)C1=C(C)NC(C)=C(C(=O)NCCCN2CCC(c3ccccc3)(c3ccccc3)CC2)C1c1ccc([N+](=O)[O-])cc1` (stereo unspecified), the figures for the pK in test [1], in test [2] and in test [3] were 7.89, 9.64 and 7.18, respectively.

As to `COc1cc2nc(N3CCN(C(=O)c4ccco4)[C@H]4CCCC[C@H]43)nc(N)c2cc1OC`, the pK in test [1] came out at 9.89; in test [2] it was 7.92; in test [3] it was 8.49.

As for `COc1cc2c(cc1O)C1Cc3ccc(OC)c(O)c3CN1CC2` (stereo unspecified), the pK in test [1] is 6.44; in test [2], 6.21; in test [3] it was 7.6.

`COC(=O)[C@H]1[C@H]2C[C@H]3c4[nH]c5ccccc5c4CCN3C[C@@H]2CC[C@@H]1O`: the values for the pK in test [1], in test [2] and in test [3] were 6.29, 6.85 and 6.6, respectively.

Turning to `COc1ccccc1N1CCN(CCCNC(=O)c2cccc3c(=O)c(C)c(-c4ccccc4)oc23)CC1`, the values for the pK in test [2] and in test [3] were 9 and 8.6, respectively.

For the compound `O=C(NC1CCN(CCc2c[nH]c3ccccc23)CC1)c1ccccc1`, the pK in test [1] was determined as 7.4; in test [2] it was 8.4; in test [3], 6.8.

Turning to `COc1cccc(OC)c1OCCNCC1COc2ccccc2O1` (stereo unspecified), the pK in test [2] was determined as 9.8; in test [3], 9.6.

Consider `COc1cc2nc(N3CCN(C(=O)COc4c(OC)cccc4C(C)C)CC3)nc(N)c2cc1OC`, for which the pK in test [1] is 9.52; in test [2] it was 8.72; in test [3] it was 8.59.

As to `CC(C)(Cc1c[nH]c2ccc(Cl)cc12)NCCOc1ccccc1OCC1CC1`, the pK in test [1] is 7.8; in test [2], 9.22; in test [3], 7.8.

On to `COC(=O)C1=C(C)NC(C)=C(C(=O)OCCCN2CCC(c3ccccc3)(c3ccccc3)CC2)[C@H]1c1cccc([N+](=O)[O-])c1`, for which the pK in test [1] turned out to be 7.26; in test [2] it was 9.82; in test [3], 7.

Take `Cc1c[nH]c(=O)n(CCCN2CCN(c3ccc(F)cc3OCC(F)(F)F)CC2)c1=O`: the pK in test [1] was found to be 7.1; in test [2] it was 9; in test [3], 7.

Turning to `COc1cc2nc(N3CCN(C(=O)C4CCCO4)CC3)nc(N)c2cc1OC` (stereo unspecified), the results for the pK in test [2] and in test [3] were 8.2 and 8.6, respectively.

Turning to `C[C@H](CN1CCN(c2cc(F)c(F)cc2F)CC1)N1C(=O)CC2(CCCC2)CC1=O`, the pK in test [1] was found to be 6.72; in test [2] it was 6.53; in test [3] it was 8.8.

Consider `COc1cc2c(cc1OC)CN(c1cc(N)c3cc(OC)c(OC)cc3n1)CC2`, for which the pK in test [1] came out at 10.1; in test [2], 10.4; in test [3], 10.4.

In the case of `O=C(CCCN1CCC2(CC1)C(=O)NCN2c1ccccc1)c1ccc(F)cc1`, the pK is 9.3 in test [1], 8.1 in test [2] and 7.89 in test [3].

In the case of `COc1ccccc1N1CCN(CCN(C(=O)C2CCCCC2)c2ccccn2)CC1`, the pK in test [1] is 6.73; in test [2] it was 7.24; in test [3], 7.2.

`C[C@H](Cc1cc2c(c(C(N)=O)c1)N(CCCO)CC2)NCCOc1ccccc1OCC(F)(F)F`: the pK was determined as 7.7 in test [1], 10.4 in test [2] and 8.7 in test [3].
